Results taken from publication PMC2653224 (Journal of molecular biology, 2008).

Target: cytochrome c (Fe^2+ cyt c) (Equus caballus, UniProt P00004)
Experiment: equilibrium heme Soret absorbance titration with CO at […] °C
Assay type: binding

cytochrome c (Fe^2+ cyt c), sequence (P00004 2-105): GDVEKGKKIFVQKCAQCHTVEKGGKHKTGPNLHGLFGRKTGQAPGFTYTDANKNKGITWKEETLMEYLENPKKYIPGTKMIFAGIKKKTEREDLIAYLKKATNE

[C-]#[O+] [CO]
Kd: 14 ± 8 nM
